Results reported in US20180312493A1, “Antibiotic Compounds, Pharmaceutical Formulations Thereof And Methods And Uses Therefor” (Simon Fraser University, priority 2015, published 2018).
Values after ≈ are worked out from the molar mass of the structure shown. Like-named read-outs stand apart in the source and are kept apart here.

Columns and labels:
MRSA Pyk = biological target: T1, MRSA Pyk (Staphylococcus aureus, UniProt Q6GG09); assay: MRSA pyruvate kinase (PK) activity, continuous LDH-coupled assay; type: biochemical, methicillin resistant S. aureus (MRSA252)
T1 construct: made in house; host or cells: E. coli BL-21 (DE3)
T1 sequence (Q6GG09 whole entry): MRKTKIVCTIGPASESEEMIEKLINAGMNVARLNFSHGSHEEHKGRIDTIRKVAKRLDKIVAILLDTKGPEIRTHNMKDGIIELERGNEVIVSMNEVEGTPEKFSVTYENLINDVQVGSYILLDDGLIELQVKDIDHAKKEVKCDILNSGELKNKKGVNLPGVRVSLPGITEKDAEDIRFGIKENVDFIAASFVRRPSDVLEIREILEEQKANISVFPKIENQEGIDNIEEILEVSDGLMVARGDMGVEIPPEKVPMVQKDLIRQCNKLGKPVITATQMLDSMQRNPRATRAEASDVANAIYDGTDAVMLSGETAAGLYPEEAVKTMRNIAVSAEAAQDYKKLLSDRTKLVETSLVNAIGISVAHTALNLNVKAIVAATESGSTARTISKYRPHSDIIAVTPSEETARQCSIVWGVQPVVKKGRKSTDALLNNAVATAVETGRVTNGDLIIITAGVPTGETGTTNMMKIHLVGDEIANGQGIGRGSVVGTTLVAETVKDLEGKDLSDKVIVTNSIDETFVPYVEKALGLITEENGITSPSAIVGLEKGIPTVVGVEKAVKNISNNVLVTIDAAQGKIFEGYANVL
In short: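 Activity monitored continuously as absorbance change at 340 nm from NADH oxidation via coupled lactate dehydrogenase, reactions started with 15 nM recombinant His-tagged PK (MRSA or human isoform) and run at 30° C for up to 5 min. Ki derived by varying inhibitor (0-400 nM) and PEP (2-20 mM) at 2 mM ADP; IC50 by four-parameter fitting.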

S. aureus (ATCC29213) = assay: In vitro susceptibility, broth microdilution (MIC); type: cell-based; details: Staphylococcus aureus
In short: (§1)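 CLSI 2-fold serial broth microdilution; K. pneumoniae C238 grown in L-broth, S. aureus ATCC 29213 in Mueller Hinton broth, plates incubated 18–24 h at 37 °C. MIC taken as lowest concentration giving complete growth inhibition by OD600 versus compound-free wells, background-subtracted.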

K. pneumoniae (C238) = assay: In vitro susceptibility, broth microdilution (MIC); type: cell-based; details: Klebsiella pneumoniae; K. pneumoniae (C238); read-out: Antimicrobial activity (MIC) K. pneumoniae
In short: as §1

MRSA (ATCC BAA-1762) = assay: In vitro susceptibility, broth microdilution (MIC); type: cell-based, methicillin resistant S. aureus; details: Staphylococcus aureus, read-out: Antimicrobial activity (MIC) MRSA ATCC BAA1762
Excerpt: (§2) Epidemic methicillin resistant S. aureus (MRSA) strain sequenced at the Sanger Centre (MRSA252, NRS71) was obtained from NARSA (Network on Antimicrobial Resistance in S. aureus). Methicillin sensitive S. aureus (ATCC 29213 and 25923), methicillin resistant S. aureus (ATCC BAA-1762), and Salmonella typhimurium (ATCC BAA-185) were obtained from ATCC, The Global Bioresource Center. Acinetobacter baumannii (ATCC 19606 and ATCC 17978), Klebsiella pneumonia (C238), vancomycin resistant Enterococci #2 (2010A) (VRE#2), MRSA (USA400, MW2) and Pseudomonas aeruginosa (PA0-1) were obtained from the laboratory of Dr B. B. Finlay at the University of British Columbia (Vancouver, Canada).
(§3) The antimicrobial activities of PK inhibitor candidates were determined using the 96-well microtiter standard 2-fold serial broth microdilution method as described by CLSI (formerly NCCLS) with the various gram-positive and gram-negative bacteria species mentioned above. Bacteria from a single colony were grown, overnight in either BHI Broth (VRE), mueller hinton broth (S. aureus 29213; MRSA USA400, A. baumannii 19606, MRSA BAA-1762) or L-broth (P. aeruginosa, S. typhimurium, K. pneumonia and A. baumannii 17978). Each compound was prepared in DMSO with 2-fold serial dilutions to give a final concentration of, 0.031 to 64 μg/ml. 10 μl of the compound solution was then added, in duplicate, to either, 190 μl of cation adjusted mueller hinton broth (CAMHB) or 190 μl CAMHB containing ˜2.5×10^5 CFU/ml of bacteria (final compound concentration 0.031 to 64 μg/ml). Culture plates were incubated for 18-24 h at 37° C., and optical density at 600 nm (OD600) was measured using a Benchmark Plus™ microplate spectrophotometer (Bio-Rad™). The absorbance control values for the series containing CAMHB and inhibitor were subtracted as background from the corresponding infected wells. Minimal inhibitory concentration (MIC) was defined as the lowest concentration of test compound leading to complete inhibition of cell growth in relation to compound-free control wells as determined by optical density. Vancomycin, methicillin and ciprofloxicin were used as reference compounds. All assays were run in triplicate or duplicate. Experiments were replicated at least twice to verify reproducibility using the above conditions.

VRE#2 (2010A) = assay: In vitro susceptibility, broth microdilution (MIC); type: cell-based, vancomycin resistant Enterococci; details: read-out: Antimicrobial activity (MIC) VRE#2
Excerpt: as §2, §3

[1] = tested on: A. baumannii (ATCC 19606); assay: In vitro susceptibility, broth microdilution (MIC); type: cell-based; details: Acinetobacter baumannii, ATCC19606; A. baumannii ATCC 19606 (values without asterisk); read-out: Antimicrobial activity (MIC) A. baumannii
Excerpt: as §2, §3

[2] = S. aureus ATCC29213, 18-24 h, 37 C, read-out: Antimicrobial activity (MIC) S. aureus ATCC29213

Row | Structure (SMILES) | IC50 (MRSA Pyk) [nM] | MIC (S. aureus (ATCC29213); [2]) [µg/mL] | MIC (K. pneumoniae (C238)) [µg/mL] | other results
1 | COCCNC(=O)CCCC(=O)c1c(-c2cc3cc(Cl)ccc3[nH]2)[nH]c2cc(Br)ccc12 [Compound 103, 5-(6-bromo-5′-chloro-1H,1′H-[2,2′-biindol]-3-yl)-N-(2-methoxyethyl)-5-oxopentanamide] | < 100 | > 64 | > 64 | 
2 | CN1CCN(CCNC(=O)c2c(-c3cc4cc(Cl)ccc4[nH]3)[nH]c3cc(Br)ccc23)C(c2ccccc2)C1 (stereo not drawn) [Compound 139, 6-Bromo-5′-chloro-N-(2-(4-methyl-2-phenylpiperazin-1-yl)ethyl)-1H,1′H-[2,2′-biindole]-3-carboxamide] | < 100 | 4 (≈ 6.77 µM) |  | MIC (MRSA (ATCC BAA-1762); MRSA ATCC BAA-1762): 8 µg/mL (≈ 13.5 µM); MIC (VRE#2 (2010A); VRE#2 (2010A)): 8 µg/mL (≈ 13.5 µM)
3 | COCCC1CCCN1CCNC(=O)c1c(-c2cc3cc(Cl)ccc3[nH]2)[nH]c2cc(Br)ccc12 (stereo not drawn) [Compound 123, 6-Bromo-5′-chloro-N-(2-(2-(2-methoxyethyl)pyrrolidin-1-yl)ethyl)-1H,1′H-[2,2′-biindole]-3-carboxamide] | < 100 | 8 (≈ 14.7 µM) |  | MIC (MRSA (ATCC BAA-1762); MRSA ATCC BAA-1762): 8 µg/mL (≈ 14.7 µM); MIC (VRE#2 (2010A); VRE#2 (2010A)): 8 µg/mL (≈ 14.7 µM)
4 | O=C(Cc1ccc(Cl)cc1)Nc1nc2ccc(Br)cc2s1 [Compound 109, N-(6-bromobenzo[d]thiazol-2-yl)-2-(4-chlorophenyl)acetamide] |  | > 64 | > 64 | 
5 | O=C(Nc1ccccc1)Nc1nc2cc(Br)ccc2s1 [Compound 99, 1-(5-bromobenzo[d]thiazol-2-yl)-3-phenylurea] |  | 1 (≈ 2.87 µM) | 8 (≈ 23 µM) | 
6 | CN(C)CCn1c(-c2ccc(Cl)cc2)nc2[nH]c3cc(Br)ccc3c2c1=O [Compound 111, 7-bromo-2-(4-chlorophenyl)-3-(2-(dimethylamino)ethyl)-3H-pyrimido[4,5-b]indol-4(9H)-one] |  | > 64 | > 64 | 
7 | Cc1nc2c(cc1-c1ccc(Cl)cc1)[nH]c1cc(Br)ccc12 [Compound 113, 7-bromo-3-(4-chlorophenyl)-2-methyl-5H-pyrido[3,2-b]indole] | < 100 | > 64 | > 64 | 
8 | O=C(NCCC[n+]1ccccc1)c1c(-c2cc3cc(Cl)ccc3[nH]2)[nH]c2cc(Br)ccc12 [Compound 144, 1-(3-(6-bromo-5′-chloro-1H,1′H-[2,2′-biindole]-3-carboxamido)propyl)pyridin-1-ium] | < 100 | 8 |  | MIC (MRSA (ATCC BAA-1762); MRSA ATCC BAA-1762): 16 µg/mL; MIC (VRE#2 (2010A); VRE#2 (2010A)): 16 µg/mL
9 | C[C@@H]1CN(CCNC(=O)c2c(-c3cc4cc(Cl)ccc4[nH]3)[nH]c3cc(Br)ccc23)[C@@H](C)CN1C [Compound 122, 6-Bromo-5′-chloro-N-(2-((2S,5R)-2,4,5-trimethylpiperazin-1-yl)ethyl)-1H,1′H-[2,2′-biindole]-3-carboxamide] | < 100 | 8 (≈ 14.7 µM) |  | MIC (MRSA (ATCC BAA-1762); MRSA ATCC BAA-1762): 8 µg/mL (≈ 14.7 µM); MIC (VRE#2 (2010A); VRE#2 (2010A)): 8 µg/mL (≈ 14.7 µM)
10 | COc1cc2[nH]c(-c3cc4ccc(Br)cc4[nH]3)cc2cc1Cl [Compound 140, 6′-Bromo-5-chloro-6-methoxy-1H,1′H-2,2′-biindole] |  | > 64 | > 64 | 
11 | O=C(NCCCN1CCOCC1)c1c(/C=C/c2ccc(Cl)cc2)[nH]c2cc(Br)ccc12 [Compound 48, (E)-6-Bromo-2-(4-chlorostyryl)-N-(3-morpholinopropyl)-1H-indole-3-carboxamide] |  | > 64 | > 64 | 
12 | CNC(=O)C(O)c1c(/C=C/c2ccc(Cl)cc2)[nH]c2cc(Br)ccc12 (stereo not drawn) [Compound 90, (E)-2-(6-bromo-2-(4-chlorostyryl)-1H-indol-3-yl)-2-hydroxy-N-methylacetamide] | 100 to 1000 | > 64 | > 64 | 
13 | CNC(=O)C(=O)c1c(CCc2ccc(Cl)cc2)[nH]c2cc(Br)ccc12 [Compound 89, 2-(6-bromo-2-(4-chlorophenethyl)-1H-indol-3-yl)-N-methyl-2-oxoacetamide] | > 1000 | > 64 | > 64 | 
14 | O=C(NCCCCN1CCOCC1)c1c(/C=C/c2ccc(Cl)cc2)[nH]c2cc(Br)ccc12 [Compound 45, (E)-6-Bromo-2-(4-chlorostyryl)-N-(4-morpholinobutyl)-1H-indole-3-carboxamide] | < 100 | > 64 | 32 (≈ 61.9 µM) | 
15 | O=C(NCCc1ccccn1)C(=O)c1c(/C=C/c2ccc(Cl)cc2)[nH]c2cc(Br)ccc12 [Compound 88, (E)-2-(6-bromo-2-(4-chlorostyryl)-1H-indol-3-yl)-2-oxo-N-(2-(pyridin-2-yl)ethyl)acetamide] | 100 to 1000 | > 64 | > 64 | 
16 | O=C(Nc1ccccc1)Nc1nc2ccc(Br)cc2s1 [Compound 100, 1-(6-bromobenzo[d]thiazol-2-yl)-3-phenylurea] |  | > 64 | > 64 | 
17 | NC(=O)Cn1c(-c2cc3ccc(Br)cc3[nH]2)nc2cc(Cl)c(Cl)cc21 [Compound 215, 2-(2-(6-Bromo-1H-indol-2-yl)-5,6-dichloro-1H-benzo[d]imidazol-1-yl)acetamide] |  | > 64 |  | MIC [1]: > 64 µg/mL
18 | FC(F)(F)c1ccc2sc(/C=C/c3ccc(Cl)cc3)nc2c1 [Compound 115, (E)-2-(4-chlorostyryl)-5-(trifluoromethyl)benzo[d]thiazole] |  | > 64 | > 64 | 
19 | O=C(CCCC(=O)c1c(-c2cc3cc(Cl)ccc3[nH]2)[nH]c2cc(Br)ccc12)Nc1ncn[nH]1 [Compound 105, 5-(6-bromo-5′-chloro-1H,1′H-[2,2′-biindol]-3-yl)-5-oxo-N-(1H-1,2,4-triazol-5-yl)pentanamide] | < 100 | > 64 | > 64 | 
20 | O=C(CCCC(=O)c1c(-c2cc3cc(Cl)ccc3[nH]2)[nH]c2cc(Br)ccc12)NCCO [Compound 104, 5-(6-bromo-5′-chloro-1H,1′H-[2,2′-biindol]-3-yl)-N-(2-hydroxyethyl)-5-oxopentanamide] | < 100 | > 64 | > 64 | 
21 | CN(Cc1ccccc1)c1c(CCc2ccc(Cl)cc2)[nH]c2cc(Br)ccc12 [Compound 98, N-benzyl-6-bromo-2-(4-chlorophenethyl)-N-methyl-1H-indol-3-amine] | 100 to 1000 | 32 (≈ 70.5 µM) | > 64 | 
22 | CN(C)CCc1c(-c2nc3ccc(Cl)cc3o2)[nH]c2cc(Br)ccc12 [Compound 203, 2-(6-Bromo-2-(6-chlorobenzo[d]oxazol-2-yl)-1H-indol-3-yl)-N,N-dimethylethan-1-amine] | < 100 |  |  | MIC (MRSA (ATCC BAA-1762)): 8 µg/mL (≈ 19.1 µM); MIC (VRE#2 (2010A)): 16 µg/mL (≈ 38.2 µM); MIC (S. aureus (ATCC29213); ATCC29213, read-out: Antimicrobial activity (MIC) S. aureus ATCC29213): 8 µg/mL (≈ 19.1 µM)
23 | COCCN1CCN(CCNC(=O)c2c(-c3cc4cc(Cl)ccc4[nH]3)[nH]c3cc(Br)ccc23)CC1 [Compound 129, 6-bromo-5′-chloro-N-(2-(4-(2-methoxyethyl)piperazin-1-yl)ethyl)-1H,1′H-2,2′-biindole-3-carboxamide] | < 100 | 16 (≈ 28.6 µM) |  | MIC (MRSA (ATCC BAA-1762); MRSA ATCC BAA-1762): 16 µg/mL (≈ 28.6 µM); MIC (VRE#2 (2010A); VRE#2 (2010A)): 16 µg/mL (≈ 28.6 µM)
24 | CNC(=O)Cc1c(CCc2ccc(Cl)cc2)[nH]c2cc(Br)ccc12 [Compound 91, 2-(6-Bromo-2-(4-chlorophenethyl)-1H-indol-3-yl)-N-methylacetamide] |  | > 64 | > 64 | 
